In ChEMBL document CHEMBL4507279, “Data for DCP probe BI-9627” (2021):

Columns and labels:
[1] = target: Ribosomal protein S6 kinase alpha-5 (Homo sapiens) (UniProt O75582); conditions: Compound concentration 1000.0 nM
[2] = target: Interferon-induced, double-stranded RNA-activated protein kinase (Homo sapiens) (UniProt P19525); conditions: Compound concentration 1000.0 nM
[3] = target: Muscarinic acetylcholine receptor M4 (Homo sapiens) (UniProt P08173); conditions: Compound concentration 10.0 uM
[4] = target: Phosphatidylinositol 4,5-bisphosphate 3-kinase catalytic subunit beta isoform (Homo sapiens) (UniProt P42338); conditions: Compound concentration 1000.0 nM
[5] = target: Proto-oncogene tyrosine-protein kinase Src (Homo sapiens) (UniProt P12931); conditions: Compound concentration 1000.0 nM
[6] = target: Insulin-like growth factor 1 receptor (Homo sapiens) (UniProt P08069); conditions: Compound concentration 1000.0 nM
[7] = target: Sodium-dependent serotonin transporter (Homo sapiens) (UniProt P31645); conditions: Compound concentration 10.0 uM
[8] = target: Alpha-2B adrenergic receptor (Homo sapiens) (UniProt P18089); conditions: Compound concentration 10.0 uM
[9] = target: Insulin receptor (Homo sapiens) (UniProt P06213); conditions: Compound concentration 1000.0 nM
[10] = target: Serine/threonine-protein kinase Nek2 (Homo sapiens) (UniProt P51955); conditions: Compound concentration 1000.0 nM
[11] = target: Serine/threonine-protein kinase TBK1 (Homo sapiens) (UniProt Q9UHD2); conditions: Compound concentration 1000.0 nM
[12] = target: Peripheral plasma membrane protein CASK (Homo sapiens) (UniProt O14936); conditions: Compound concentration 1000.0 nM
[13] = target: Cyclin-dependent kinase-like 2 (Homo sapiens) (UniProt Q92772); conditions: Compound concentration 1000.0 nM
[14] = target: Mitogen-activated protein kinase kinase kinase 9 (Homo sapiens) (UniProt P80192); conditions: Compound concentration 1000.0 nM
[15] = system: Phosphatidylinositol 4,5-bisphosphate 3-kinase catalytic subunit alpha isoform (Homo sapiens), P42336 [Q546K]; conditions: Compound concentration 1000.0 nM
[16] = target: Vascular endothelial growth factor receptor 2 (Homo sapiens) (UniProt P35968); conditions: Compound concentration 1000.0 nM
[17] = target: Rho-associated protein kinase 2 (Homo sapiens) (UniProt O75116); conditions: Compound concentration 1000.0 nM
[18] = target: Non-receptor tyrosine-protein kinase TYK2 (Homo sapiens) (UniProt P29597); conditions: Compound concentration 1000.0 nM
[19] = target: G protein-coupled receptor kinase 4 (Homo sapiens) (UniProt P32298); conditions: Compound concentration 1000.0 nM
[20] = target: Receptor-type tyrosine-protein kinase FLT3 (Homo sapiens) (UniProt P36888); conditions: Compound concentration 1000.0 nM
[21] = system: Phosphatidylinositol 4,5-bisphosphate 3-kinase catalytic subunit alpha isoform (Homo sapiens), P42336 [E545A]; conditions: Compound concentration 1000.0 nM
[22] = target: Proto-oncogene tyrosine-protein kinase receptor Ret (Homo sapiens) (UniProt P07949); conditions: Compound concentration 1000.0 nM
[23] = target: Tyrosine-protein kinase CSK (Homo sapiens) (UniProt P41240); conditions: Compound concentration 1000.0 nM
[24] = system: Receptor-type tyrosine-protein kinase FLT3 (Homo sapiens), P36888 [N841I]; conditions: Compound concentration 1000.0 nM
[25] = target: Phosphatidylinositol 4,5-bisphosphate 3-kinase catalytic subunit delta isoform (Homo sapiens) (UniProt O00329); conditions: Compound concentration 1000.0 nM
[26] = target: Sigma intracellular receptor 2 (Homo sapiens) (UniProt Q5BJF2); conditions: Compound concentration 10.0 uM
[27] = target: Casein kinase I isoform gamma-1 (Homo sapiens) (UniProt Q9HCP0); conditions: Compound concentration 1000.0 nM
[28] = target: Dual specificity mitogen-activated protein kinase kinase 2 (Homo sapiens) (UniProt P36507); conditions: Compound concentration 1000.0 nM
[29] = target: Serine/threonine-protein kinase pim-1 (Homo sapiens) (UniProt P11309); conditions: Compound concentration 1000.0 nM
[30] = target: LIM domain kinase 1 (Homo sapiens) (UniProt P53667); conditions: Compound concentration 1000.0 nM
[31] = system: Mast/stem cell growth factor receptor Kit (Homo sapiens), P10721 [D816V]; conditions: Compound concentration 1000.0 nM
[32] = target: Bone morphogenetic protein receptor type-1A (Homo sapiens) (UniProt P36894); conditions: Compound concentration 1000.0 nM
[33] = target: Calcium/calmodulin-dependent protein kinase type IV (Homo sapiens) (UniProt Q16566); conditions: Compound concentration 1000.0 nM
[34] = target: Serine/threonine-protein kinase 24 (Homo sapiens) (UniProt Q9Y6E0); conditions: Compound concentration 1000.0 nM
[35] = target: Dual specificity testis-specific protein kinase 1 (Homo sapiens) (UniProt Q15569); conditions: Compound concentration 1000.0 nM
[36] = target: Alpha-1D adrenergic receptor (Homo sapiens, UniProt P25100); assay: GPCRScan assay: inhibition of Alpha1D; parameters: radioligand conc. used [nm] 0.3 – 1.0, parental cells stable
[37] = target: Atypical kinase COQ8A, mitochondrial (Homo sapiens) (UniProt Q8NI60); conditions: Compound concentration 1000.0 nM
[38] = target: Dual specificity mitogen-activated protein kinase kinase 4 (Homo sapiens) (UniProt P45985); conditions: Compound concentration 1000.0 nM
[39] = system: Mast/stem cell growth factor receptor Kit (Homo sapiens), P10721 [A829P]; conditions: Compound concentration 1000.0 nM
[40] = target: Serine/threonine-protein kinase PAK 3 (Homo sapiens) (UniProt O75914); conditions: Compound concentration 1000.0 nM
[41] = target: Mitogen-activated protein kinase 15 (Homo sapiens) (UniProt Q8TD08); conditions: Compound concentration 1000.0 nM
[42] = target: Mitogen-activated protein kinase kinase kinase 2 (Homo sapiens) (UniProt Q9Y2U5); conditions: Compound concentration 1000.0 nM
[43] = target: Serine/threonine-protein kinase PAK 6 (Homo sapiens) (UniProt Q9NQU5); conditions: Compound concentration 1000.0 nM
[44] = target: Serine/threonine-protein kinase D1 (Homo sapiens) (UniProt Q15139); conditions: Compound concentration 1000.0 nM
[45] = target: Atypical kinase COQ8B, mitochondrial (Homo sapiens) (UniProt Q96D53); conditions: Compound concentration 1000.0 nM

Proto-oncogene tyrosine-protein kinase receptor Ret (Homo sapiens), sequence (P07949 whole entry): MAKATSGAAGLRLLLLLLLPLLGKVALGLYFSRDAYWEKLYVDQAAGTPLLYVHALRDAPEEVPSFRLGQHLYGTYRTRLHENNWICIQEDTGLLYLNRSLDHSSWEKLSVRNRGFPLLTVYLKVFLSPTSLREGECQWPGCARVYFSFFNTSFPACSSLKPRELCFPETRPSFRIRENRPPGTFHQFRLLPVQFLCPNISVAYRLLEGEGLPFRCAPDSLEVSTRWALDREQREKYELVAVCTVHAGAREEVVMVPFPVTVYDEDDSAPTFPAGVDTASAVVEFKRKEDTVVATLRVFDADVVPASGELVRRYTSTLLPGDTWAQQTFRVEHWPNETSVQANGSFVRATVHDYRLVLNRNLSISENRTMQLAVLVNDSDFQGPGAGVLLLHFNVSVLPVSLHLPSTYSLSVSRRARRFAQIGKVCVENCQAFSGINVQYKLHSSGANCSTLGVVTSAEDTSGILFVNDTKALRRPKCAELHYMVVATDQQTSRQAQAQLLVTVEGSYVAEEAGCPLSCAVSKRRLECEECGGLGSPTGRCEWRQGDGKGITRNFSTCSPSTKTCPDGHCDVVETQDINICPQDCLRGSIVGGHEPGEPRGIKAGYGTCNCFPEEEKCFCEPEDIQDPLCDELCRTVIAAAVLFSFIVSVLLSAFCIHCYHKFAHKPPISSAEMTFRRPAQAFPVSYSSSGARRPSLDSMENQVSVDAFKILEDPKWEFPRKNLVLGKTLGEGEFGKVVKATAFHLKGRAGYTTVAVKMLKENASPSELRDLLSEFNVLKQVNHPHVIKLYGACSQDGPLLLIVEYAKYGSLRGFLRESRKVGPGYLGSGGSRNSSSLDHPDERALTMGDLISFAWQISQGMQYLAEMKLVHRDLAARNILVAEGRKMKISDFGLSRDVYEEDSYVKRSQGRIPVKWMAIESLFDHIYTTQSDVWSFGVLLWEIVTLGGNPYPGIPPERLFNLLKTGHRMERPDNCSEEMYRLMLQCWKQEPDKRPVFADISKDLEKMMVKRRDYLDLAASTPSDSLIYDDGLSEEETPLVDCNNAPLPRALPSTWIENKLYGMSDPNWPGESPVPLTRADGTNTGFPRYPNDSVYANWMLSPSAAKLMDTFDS
Alpha-1D adrenergic receptor, sequence (P25100 whole entry): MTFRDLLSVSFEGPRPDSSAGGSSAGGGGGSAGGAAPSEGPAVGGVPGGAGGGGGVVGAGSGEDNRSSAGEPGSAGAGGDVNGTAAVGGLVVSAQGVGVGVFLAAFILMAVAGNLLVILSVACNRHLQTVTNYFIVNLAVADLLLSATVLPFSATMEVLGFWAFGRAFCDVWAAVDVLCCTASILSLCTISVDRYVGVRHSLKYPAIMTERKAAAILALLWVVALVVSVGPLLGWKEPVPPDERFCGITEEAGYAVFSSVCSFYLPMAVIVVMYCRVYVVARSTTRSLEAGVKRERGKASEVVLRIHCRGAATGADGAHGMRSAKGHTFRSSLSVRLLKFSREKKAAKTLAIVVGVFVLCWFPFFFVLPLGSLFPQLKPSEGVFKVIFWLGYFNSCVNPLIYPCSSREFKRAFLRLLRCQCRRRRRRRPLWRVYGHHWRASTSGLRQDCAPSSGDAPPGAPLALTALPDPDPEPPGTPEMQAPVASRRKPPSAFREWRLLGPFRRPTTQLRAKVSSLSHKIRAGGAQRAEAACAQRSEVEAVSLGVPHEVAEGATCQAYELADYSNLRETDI
Phosphatidylinositol 4,5-bisphosphate 3-kinase catalytic subunit alpha isoform (Homo sapiens), P42336 [Q546K], sequence (P42336 whole entry Q546K, canonical isoform): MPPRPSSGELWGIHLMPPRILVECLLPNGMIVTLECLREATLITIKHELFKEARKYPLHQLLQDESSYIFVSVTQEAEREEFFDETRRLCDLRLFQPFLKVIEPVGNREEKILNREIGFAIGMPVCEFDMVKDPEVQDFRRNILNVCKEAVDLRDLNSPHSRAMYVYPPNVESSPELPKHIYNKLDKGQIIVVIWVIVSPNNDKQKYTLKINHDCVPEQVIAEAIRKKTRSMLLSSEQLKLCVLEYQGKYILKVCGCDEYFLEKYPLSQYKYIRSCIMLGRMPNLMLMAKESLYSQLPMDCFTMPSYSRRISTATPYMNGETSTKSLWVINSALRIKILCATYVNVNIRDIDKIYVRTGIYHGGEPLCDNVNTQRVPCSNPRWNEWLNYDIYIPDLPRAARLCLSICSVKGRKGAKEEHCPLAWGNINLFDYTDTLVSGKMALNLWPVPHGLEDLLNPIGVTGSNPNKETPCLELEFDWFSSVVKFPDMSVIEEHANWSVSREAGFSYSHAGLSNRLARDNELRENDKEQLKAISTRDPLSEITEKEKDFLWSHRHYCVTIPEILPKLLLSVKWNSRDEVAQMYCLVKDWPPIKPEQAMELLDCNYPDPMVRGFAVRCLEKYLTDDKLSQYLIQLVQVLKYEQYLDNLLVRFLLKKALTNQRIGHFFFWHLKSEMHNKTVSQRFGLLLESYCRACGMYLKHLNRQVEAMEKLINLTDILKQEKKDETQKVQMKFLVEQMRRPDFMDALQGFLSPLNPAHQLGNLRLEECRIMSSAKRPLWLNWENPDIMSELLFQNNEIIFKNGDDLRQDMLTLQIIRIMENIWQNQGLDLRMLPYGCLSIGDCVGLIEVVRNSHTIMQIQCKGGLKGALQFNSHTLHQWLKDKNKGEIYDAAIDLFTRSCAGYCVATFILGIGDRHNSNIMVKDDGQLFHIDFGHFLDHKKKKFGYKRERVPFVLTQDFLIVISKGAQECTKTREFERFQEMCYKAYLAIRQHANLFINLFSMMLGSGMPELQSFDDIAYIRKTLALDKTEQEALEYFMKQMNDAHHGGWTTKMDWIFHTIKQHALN
Peripheral plasma membrane protein CASK (Homo sapiens), sequence (O14936 whole entry): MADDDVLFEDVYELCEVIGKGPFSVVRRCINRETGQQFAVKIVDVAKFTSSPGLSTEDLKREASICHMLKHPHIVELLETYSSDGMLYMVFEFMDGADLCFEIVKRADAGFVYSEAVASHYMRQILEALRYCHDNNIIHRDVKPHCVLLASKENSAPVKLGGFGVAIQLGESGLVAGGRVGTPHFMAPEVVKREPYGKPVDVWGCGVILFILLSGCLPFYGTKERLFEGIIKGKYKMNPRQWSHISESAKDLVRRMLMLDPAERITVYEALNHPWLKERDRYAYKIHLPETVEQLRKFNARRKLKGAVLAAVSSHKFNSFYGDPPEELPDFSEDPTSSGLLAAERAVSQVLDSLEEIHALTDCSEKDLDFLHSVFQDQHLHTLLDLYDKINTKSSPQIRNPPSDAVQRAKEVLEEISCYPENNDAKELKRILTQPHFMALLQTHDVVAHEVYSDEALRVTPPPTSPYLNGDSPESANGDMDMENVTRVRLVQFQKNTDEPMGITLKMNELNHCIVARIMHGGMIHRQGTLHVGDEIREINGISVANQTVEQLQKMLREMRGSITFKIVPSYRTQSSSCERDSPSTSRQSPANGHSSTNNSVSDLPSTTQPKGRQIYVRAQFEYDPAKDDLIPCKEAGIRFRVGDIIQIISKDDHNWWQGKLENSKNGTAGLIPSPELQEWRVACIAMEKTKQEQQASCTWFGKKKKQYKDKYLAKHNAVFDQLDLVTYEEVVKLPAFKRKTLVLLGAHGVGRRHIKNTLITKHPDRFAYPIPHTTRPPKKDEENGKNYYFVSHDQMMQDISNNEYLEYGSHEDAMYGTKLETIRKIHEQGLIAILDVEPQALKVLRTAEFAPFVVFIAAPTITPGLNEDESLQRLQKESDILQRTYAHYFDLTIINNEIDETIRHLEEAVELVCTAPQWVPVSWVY
Muscarinic acetylcholine receptor M4 (Homo sapiens), sequence (P08173 whole entry, canonical isoform): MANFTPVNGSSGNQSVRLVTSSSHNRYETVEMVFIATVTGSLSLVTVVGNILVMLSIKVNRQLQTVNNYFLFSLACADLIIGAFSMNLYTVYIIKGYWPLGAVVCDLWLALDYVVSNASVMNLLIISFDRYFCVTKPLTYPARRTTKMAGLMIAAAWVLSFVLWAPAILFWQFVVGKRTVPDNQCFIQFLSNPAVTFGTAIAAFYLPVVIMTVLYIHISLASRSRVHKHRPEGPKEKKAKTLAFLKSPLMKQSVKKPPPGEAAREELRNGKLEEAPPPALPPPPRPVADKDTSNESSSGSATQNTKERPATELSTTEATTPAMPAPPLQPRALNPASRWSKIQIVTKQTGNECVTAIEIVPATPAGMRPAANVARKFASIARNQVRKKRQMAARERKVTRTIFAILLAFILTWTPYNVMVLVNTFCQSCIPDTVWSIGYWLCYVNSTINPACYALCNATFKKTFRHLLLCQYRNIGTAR
Proto-oncogene tyrosine-protein kinase Src (Homo sapiens), sequence (P12931 2-536 limits assumed): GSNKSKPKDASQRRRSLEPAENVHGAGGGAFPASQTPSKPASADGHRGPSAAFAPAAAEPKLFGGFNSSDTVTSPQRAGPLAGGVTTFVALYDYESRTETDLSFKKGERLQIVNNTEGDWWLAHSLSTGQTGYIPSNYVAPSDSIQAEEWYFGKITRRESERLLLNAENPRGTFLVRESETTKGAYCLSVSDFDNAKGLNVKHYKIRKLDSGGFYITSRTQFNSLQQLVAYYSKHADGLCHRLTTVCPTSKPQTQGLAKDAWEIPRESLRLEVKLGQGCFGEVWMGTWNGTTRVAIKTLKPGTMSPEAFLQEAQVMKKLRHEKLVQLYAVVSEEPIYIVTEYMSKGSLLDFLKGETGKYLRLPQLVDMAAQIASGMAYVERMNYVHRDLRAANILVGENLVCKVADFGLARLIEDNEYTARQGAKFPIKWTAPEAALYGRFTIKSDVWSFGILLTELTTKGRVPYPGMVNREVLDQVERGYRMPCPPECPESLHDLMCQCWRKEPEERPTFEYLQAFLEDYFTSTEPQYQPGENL
Serine/threonine-protein kinase pim-1 (Homo sapiens), sequence (P11309 whole entry, looked up, the tested form may be a part): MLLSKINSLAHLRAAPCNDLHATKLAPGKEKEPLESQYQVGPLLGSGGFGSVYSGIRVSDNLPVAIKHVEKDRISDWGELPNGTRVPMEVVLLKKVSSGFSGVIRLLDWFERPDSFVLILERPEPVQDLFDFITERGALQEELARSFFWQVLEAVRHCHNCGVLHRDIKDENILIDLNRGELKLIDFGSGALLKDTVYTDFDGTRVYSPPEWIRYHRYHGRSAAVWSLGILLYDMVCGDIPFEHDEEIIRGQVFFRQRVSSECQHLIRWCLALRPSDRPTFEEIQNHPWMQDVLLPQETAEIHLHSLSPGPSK

CC(=O)N1CCC(c2ccc(C(=O)NC3=NCCN3)cc2C(F)(F)F)CC1 [BI 0054]
inactive: residual activity [1] 100% | residual activity [2] 100% | inhibition [3] 19.9% | residual activity [4] 100% | residual activity [5] 99% | residual activity [6] 100% | inhibition [7] 11.8% | inhibition [8] 1.01% | residual activity [9] 100% | residual activity [10] 100% | residual activity [11] 98% | residual activity [12] 85% | residual activity [13] 100% | residual activity [14] 100% | residual activity [15] 100% | residual activity [16] 80% | residual activity [17] 73% | residual activity [18] 100% | residual activity [19] 100% | residual activity [20] 100% | residual activity [21] 100% | residual activity [22] 100% | residual activity [23] 100% | residual activity [24] 94% | residual activity [25] 100% | inhibition [26] -0.12% | residual activity [27] 95% | residual activity [28] 100% | residual activity [29] 100% | residual activity [30] 100% | residual activity [31] 91% | residual activity [32] 100% | residual activity [33] 92% | residual activity [34] 97% | residual activity [35] 72% | residual activity [37] 95% | residual activity [38] 100% | residual activity [39] 100% | residual activity [40] 100% | residual activity [41] 100% | residual activity [42] 100% | residual activity [43] 100% | residual activity [44] 100% | residual activity [45] 97%
10 µM: Ki [36]

CC(=O)N1CCC(c2ccc(C(=O)NC(=N)N)cc2C(F)(F)F)CC1 [BI 9627]
inactive: residual activity [1] 100% | residual activity [2] 100% | inhibition [3] 22.3% | residual activity [4] 100% | residual activity [5] 100% | residual activity [6] 100% | inhibition [7] 21.4% | inhibition [8] 6.29% | residual activity [9] 100% | residual activity [10] 100% | residual activity [11] 100% | residual activity [12] 100% | residual activity [13] 100% | residual activity [14] 100% | residual activity [15] 100% | residual activity [16] 93% | residual activity [17] 100% | residual activity [18] 100% | residual activity [19] 100% | residual activity [20] 100% | residual activity [21] 100% | residual activity [22] 100% | residual activity [23] 100% | residual activity [24] 100% | inhibition [26] -6.34% | residual activity [27] 100% | residual activity [28] 96% | residual activity [29] 100% | residual activity [30] 100% | residual activity [31] 100% | residual activity [32] 100% | residual activity [33] 93% | residual activity [34] 100% | residual activity [35] 95% | residual activity [37] 96% | residual activity [38] 95% | residual activity [39] 100% | residual activity [40] 84% | residual activity [41] 100% | residual activity [42] 100% | residual activity [43] 100% | residual activity [44] 100% | residual activity [45] 100%
active: residual activity [25] 34%
10 µM: Ki [36]
